According to patent publication US11840686B2, “Modulation of prekallikrein (PKK) expression” (Ionis Pharmaceuticals, Inc., priority 2013, dated 2023):
Strand notation (5' to 3'): a small letter for the sugar, then the base; units joined by * are phosphorothioate-linked, units joined directly phosphodiester-linked; [ ] holds rarer units or linkages, { } end groups; capitals alone tell only the bases. e = 2'-O-(2-methoxyethyl) (MOE); [5mC] = 5-methylcytosine; d = 2'-deoxy (DNA)

How the values were obtained:
human PKK mRNA [1] = test: Antisense inhibition of human PKK mRNA in HepaRG cells, 5,000 nM (Example 2); format: cell-based
How it was run: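 qRT-PCR (RTS3454) read-out, RIBOGREEN-normalized; % inhibition vs untreated cells. HepaRG, 20,000 cells/well, electroporation, 5,000 nM ASO, ~24 h.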

human PKK mRNA [2] = test: Dose-dependent antisense inhibition of human PKK in HepaRG cells, 0.12-10.00 uM (Example 4); format: cell-based; details: electroporation, ~16 h
How it was run: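 HepaRG cells (20,000/well) electroporated with antisense oligonucleotide at 0.12, 0.37, 1.11, 3.33 and 10.00 μM, ~16 h treatment. PKK mRNA by qRT-PCR (primer probe set RTS3454), normalised to RIBOGREEN total RNA. % inhibition versus untreated cells; IC50 derived.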

[3] = system: captopril-induced vascular permeability; test: Dose-dependent effect on captopril-induced vascular permeability, Evans Blue OD600 (Example 13); format: in vivo, mouse; details: for OD600 nm of Evans Blue dye, Colon / OD600 nm of Evans Blue dye, Ears / OD600 nm of Evans Blue dye, Feet / OD600 nm of Evans Blue dye, Intestine: captopril Yes
Experimental: The effect of varying doses on ISIS 482584 on captopril-induced vascular permeability was evaluated.
Group 1 consisted of 4 mice and was treated with PBS administered subcutaneously twice a week for 3 weeks. No other treatment was administered to Group 1 which served as a control group to measure the basal levels of vascular permeability.
Group 2 consisted of 8 mice and was treated with PBS administered subcutaneously twice a week for 3 weeks. At the end of the treatment period, the mice were intraperitoneally administered 20 μg of captopril. Group 2 served as the control group for captopril-induced vascular permeability.
Group 3 consisted of 4 mice and was treated with PBS administered subcutaneously twice a week for 3 weeks. At the end of the treatment period, the mice were intraperitoneally administered 20 μg of captopril. The mice were also intraperitoneally administered 30 μg of Icatibant (HOE-140). […] served as a positive control for inhibition of captopril-induced vascular permeability.
Groups 4, 5, 6, 7, 8, and 9 consisted of 8 mice each and were treated with 2.5 mg/kg, 5 mg/kg, 10 mg/kg, 20 mg/kg, 40 mg/kg, or 80 mg/kg (corresponding to 5 mg/kg, 10 mg/kg, 20 mg/kg, 40 mg/kg, 80 mg/kg, or 160 mg/kg per week), respectively of ISIS 482584 administered subcutaneously twice a week for 3 weeks. At the end of the treatment period, the mice of all the groups were intraperitoneally administered 20 μg of captopril. Groups 4-9 served as the experimental treatment groups for examining the effect of varying doses of ISIS 482584 on captopril-induced vascular permeability.
All the groups were then injected with 30 mg/kg of Evans Blue solution in the tail vein. The mice were sacrificed 30 min after the Evans Blue solution administration and colons, feet, ears, and intestines were harvested. Blood samples were taken through cardiac puncture.
The harvested tissues were placed in formamide solution overnight to leach out the Evans Blue dye. The formamide solution containing feet and ear tissue was heated to 55° C. and left overnight.

[4] = dose 5 mg/kg, sc twice a week 3 weeks
[5] = dose 10 mg/kg, sc twice a week 3 weeks
[6] = dose 20 mg/kg, sc twice a week 3 weeks
[7] = dose 40 mg/kg, sc twice a week 3 weeks
[8] = dose 80 mg/kg, sc twice a week 3 weeks
[9] = dose 160 mg/kg, sc twice a week 3 weeks

With “531231 (eT*eA*eT*e[5mC]*eA*d[5mC]*dT*dG*dT*dA*d[5mC]*dT*dA*dG*dT*eT*eT*e[5mC]*e[5mC]*eT) [compound 531231]” the “% inhibition” value (human PKK mRNA [1]; HepaRG cells, 5,000 nM antisense oligonucleotide, human PKK mRNA, Table 18) was 90%, the “% inhibition” value (human PKK mRNA [1]; HepaRG cells, 5,000 nM antisense oligonucleotide, 5-10-5 gapmers, Table 16) was 93% and the “% inhibition” value (human PKK mRNA [1]; HepaRG cells, 5,000 nM antisense oligonucleotide, 5-10-5 gapmers, Table 17) was 91%. The “% inhibition” value (human PKK mRNA [1]; HepaRG cells, electroporation with 5,000 nM antisense oligonucleotide, approximately 24 hours, PKK mRNA by RT-PCR (RTS3454), relative to untreated control cells, Table 5 experiment) was 98%, the “% inhibition” value (human PKK mRNA [1]; HepaRG cells, electroporation with 5,000 nM antisense oligonucleotide, approximately 24 hours, PKK mRNA by RT-PCR (RTS3454), relative to untreated control cells, Table 6 experiment) was 86% and the “% inhibition” value (human PKK mRNA [1]; HepaRG cells, electroporation, 5,000 nM antisense oligonucleotide, approx. 24 hours, primer probe set RTS3454, relative to untreated control cells, Table 11) was 90%. The “% inhibition” value (human PKK mRNA [1]; HepaRG cells, electroporation, 5,000 nM antisense oligonucleotide, approx. 24 hours, primer probe set RTS3454, relative to untreated control cells, Table 12) was 90%, the “% inhibition” value (human PKK mRNA [1]; Table 7, HepaRG cells, electroporation with 5,000 nM antisense oligonucleotide, approx. 24 hours, PKK mRNA by RT-PCR (RTS3454), relative to untreated control cells) was 88% and the “% inhibition” value (human PKK mRNA [1]; Table 8, HepaRG cells, electroporation with 5,000 nM antisense oligonucleotide, approx. 24 hours, PKK mRNA by RT-PCR (RTS3454), relative to untreated control cells) was 95%. For the same molecule, the “% inhibition” value (human PKK mRNA [1]; Table 9 experiment, HepaRG cells, 20,000 cells per well, electroporation with 5,000 nM antisense oligonucleotide, approx. 24 hours, PKK mRNA by RT-PCR (RTS3454), relative to untreated control cells) was 96%, the “% inhibition” value (human PKK mRNA [1]; Table 10 experiment, HepaRG cells, 20,000 cells per well, electroporation with 5,000 nM antisense oligonucleotide, approx. 24 hours, PKK mRNA by RT-PCR (RTS3454), relative to untreated control cells) was 72% and the “% inhibition” value (human PKK mRNA [1]; Table 13, human PKK mRNA in HepaRG cells, 5-10-5 gapmers) was 85%. For the same molecule, the “% inhibition” value (human PKK mRNA [1]; human PKK mRNA in HepaRG cells, 5-10-5 gapmers, Table 14) was 85%, the “% inhibition” value (human PKK mRNA [1]; human PKK mRNA, HepaRG cells, 5-10-5 motif oligonucleotides targeting SEQ ID NO: 1 and 10) was 93% and the “percent inhibition of PKK at 0.12 μM” value (human PKK mRNA [2]; Table 32, 0.12 μM) was 23%. For the same molecule, the “percent inhibition of PKK at 0.37 μM” value (human PKK mRNA [2]; Table 32, 0.37 μM) was 30%, the “percent inhibition of PKK at 1.11 μM” value (human PKK mRNA [2]; Table 32, 1.11 μM) was 76% and the “percent inhibition of PKK at 3.33 μM” value (human PKK mRNA [2]; Table 32, 3.33 μM) was 89%. The “percent inhibition of PKK at 10.00 μM” value (human PKK mRNA [2]; Table 32, 10.00 μM) was 94%, the IC50 (human PKK mRNA [2]; Table 32, PKK mRNA) was 600 nM and the “percent inhibition of PKK at 0.12 μM” value (human PKK mRNA [2]; Table 33, 0.12 μM) was 18%. The “percent inhibition of PKK at 0.37 μM” value (human PKK mRNA [2]; Table 33, 0.37 μM) was 0%, the “percent inhibition of PKK at 1.11 μM” value (human PKK mRNA [2]; Table 33, 1.11 μM) was 36% and the “percent inhibition of PKK at 3.33 μM” value (human PKK mRNA [2]; Table 33, 3.33 μM) was 76%. For the same molecule, the “percent inhibition of PKK at 10.00 μM” value (human PKK mRNA [2]; Table 33, 10.00 μM) was 84% and the IC50 (human PKK mRNA [2]; Table 33, PKK mRNA) was 2000 nM.
For `NC(N)=NCCC[C@@H](N)C(=O)N[C@@H](CCCN=C(N)N)C(=O)N1CCC[C@H]1C(=O)N1C[C@H](O)C[C@H]1C(=O)NCC(=O)N[C@@H](Cc1cccs1)C(=O)N[C@@H](CO)C(=O)N1Cc2ccccc2C[C@@H]1C(=O)N1[C@H](C(=O)N[C@@H](CCCN=C(N)N)C(=O)O)C[C@@H]2CCCC[C@@H]21` [HOE-140, Icatibant, reference compound], the “OD600 nm of Evans Blue dye, Colon” value ([3]; HOE-140 30 μg ip) was 0.15, the “OD600 nm of Evans Blue dye, Ears” value ([3]; HOE-140 30 μg ip) was 0.04 and the “OD600 nm of Evans Blue dye, Feet” value ([3]; HOE-140 30 μg ip) was 0.03. For the same molecule, the “OD600 nm of Evans Blue dye, Intestine” value ([3]; HOE-140 30 μg ip) was 0.10.
With “ISIS 482584: 5-10-5 MOE gapmer targeting murine PKK, GGCATATTGGTTTTTGGAAT; SEQ ID NO: 2244 (antisense eG*eG*e[5mC]*eA*eT*dA*dT*dT*dG*dG*dT*dT*dT*dT*dT*eG*eG*eA*eA*eT)” the “OD600 nm of Evans Blue dye, Colon” value [3, 4] was 0.41, the “OD600 nm of Evans Blue dye, Ears” value [3, 4] was 0.05 and the “OD600 nm of Evans Blue dye, Feet” value [3, 4] was 0.10. The “OD600 nm of Evans Blue dye, Intestine” value [3, 4] was 0.17, the “OD600 nm of Evans Blue dye, Colon” value [3, 5] was 0.41 and the “OD600 nm of Evans Blue dye, Ears” value [3, 5] was 0.05. The “OD600 nm of Evans Blue dye, Feet” value [3, 5] was 0.10, the “OD600 nm of Evans Blue dye, Intestine” value [3, 5] was 0.19 and the “OD600 nm of Evans Blue dye, Colon” value [3, 6] was 0.40. The “OD600 nm of Evans Blue dye, Ears” value [3, 6] was 0.07, the “OD600 nm of Evans Blue dye, Feet” value [3, 6] was 0.11 and the “OD600 nm of Evans Blue dye, Intestine” value [3, 6] was 0.20. For the same molecule, the “OD600 nm of Evans Blue dye, Colon” value [3, 7] was 0.36, the “OD600 nm of Evans Blue dye, Ears” value [3, 7] was 0.05 and the “OD600 nm of Evans Blue dye, Feet” value [3, 7] was 0.10. For the same molecule, the “OD600 nm of Evans Blue dye, Intestine” value [3, 7] was 0.20, the “OD600 nm of Evans Blue dye, Colon” value [3, 8] was 0.21 and the “OD600 nm of Evans Blue dye, Ears” value [3, 8] was 0.03. For the same molecule, the “OD600 nm of Evans Blue dye, Feet” value [3, 8] was 0.04, the “OD600 nm of Evans Blue dye, Intestine” value [3, 8] was 0.17 and the “OD600 nm of Evans Blue dye, Colon” value [3, 9] was 0.26. The “OD600 nm of Evans Blue dye, Ears” value [3, 9] was 0.05, the “OD600 nm of Evans Blue dye, Feet” value [3, 9] was 0.10 and the “OD600 nm of Evans Blue dye, Intestine” value [3, 9] was 0.15. The “captopril-induced vascular permeability” value ([3]; higher doses (Groups 4, 5, and 6) vs PBS control group (Group 2)) was “reduced levels of captopril-induced vascular permeability”.
In the case of “Tes Ges mCes Aes Aes Gds Tds mCds Tds mCds Tds Tds Gds Gds mCds Aes Aes Aes mCes Ae [ISIS 546254]”, the “inhibition of human PKK mRNA” value (human PKK mRNA [1]; HepaRG cells, 5,000 nM, electroporation, 24 hours) is reported as 95%.
